Test results published in patent US5373020A, “Substituted 5-(2-((2-aryl-2-hydroxyethyl)amino)propyl)-1,3-benzodioxoles” (American Cyanamid Company, priority 1993, dated 1994).
Structures can show the parent of a compound that is named as a salt.

Experiments:
db/db mice = assay: Plasma glucose, compound in chow, diabetic mice; type: in vivo, mouse (C57 B1/KsJ db/db)
Description: (§1) The compounds of this invention were tested for hypoglycemic and anti-obesity activity according to the following procedure.
(§2) Obese mice (C57 B1/6J (ob/ob)), and/or diabetic mice (C57 B1/KsJ (db/db)) were obtained from Jackson Laboratories, Bar Harbor, Maine. Obese rats (fa/fa) were obtained from Charles River Laboratories, Wilmington, Mass. Obese mice were 8 weeks of age and diabetic mice were 9 weeks of age at the start of the test. Obese rats were 12-14 weeks of age at the start.
(§3) The test compounds were dissolved in methanol, mixed with powdered Purina rodent chow on a weight of compound to weight of chow basis and thoroughly dried.
(§4) Groups of 6 control mice or rats received vehicle (methanol) treated chow.
(§5) Groups of 6 test mice were fed ad libitum for up to seven weeks and food consumption was measured daily by weighing the food bins before and after the addition of fresh chow. Thus, a 40 g mouse, fed the test compound at a concentration of 0.02 percent of the diet, would receive a dose of 20 mg/kg/day if it ate 4 g of chow per day.
(§6) The mice or rats were weighed before the first treatment and once at the end of each indicated treatment period.
Blood samples were collected before the first treatment and once at the end of each indicated treatment period by retro-orbital puncture using heparinized capillary tubes.
Plasma was separated by centrifugation in a Beckman microfuge for 5 minutes. Plasma glucose concentrations were determined with the Beckman glucose analyzer which uses a glucose oxidase method.

ob/ob mice = assay: Change in weight and food consumption, compound in chow, obese mice; type: in vivo, mouse (C57 B1/6J ob/ob)
Description: as §1, §2, §3, §4, §5, §6

[1] = dose 0.0005 % wt of chow, week 1
[2] = dose 0.002 % wt of chow, week 1
[3] = dose 0.005 % wt of chow, week 1

COC(=O)C1(C(=O)OC)Oc2ccc(C[C@@H](C)NC[C@H](O)c3cccc(Cl)c3)cc2O1 (stereo in doubt) [CL1, (R* R*)-(±)-5-(2-((2-(3-chlorophenyl)-2-hydroxyethyl)amino)propyl)-1,3-benzodioxole-2,2-dicarboxylic acid, dimethyl ester hydrobromide]
Plasma Glucose Levels (db/db mice; dose 0.0005 % wt of chow, week 0 (before treatment)): 452 mg/100 ml | Plasma Glucose Levels (db/db mice; [1]): 162 mg/100 ml | Plasma Glucose Levels (db/db mice; dose 0.0005 % wt of chow, week 5): 164 mg/100 ml | Plasma Glucose Levels (db/db mice; dose 0.0005 % wt of chow, week 7): 17 mg/100 ml | Plasma Glucose Levels (db/db mice; dose 0.002 % wt of chow, week 0 (before treatment)): 453 mg/100 ml | Plasma Glucose Levels (db/db mice; [2]): 151 mg/100 ml | Plasma Glucose Levels (db/db mice; dose 0.002 % wt of chow, week 5): 150 mg/100 ml | Plasma Glucose Levels (db/db mice; dose 0.002 % wt of chow, week 7): 16 mg/100 ml | Plasma Glucose Levels (db/db mice; dose 0.005 % wt of chow, week 0 (before treatment)): 447 mg/100 ml | Plasma Glucose Levels (db/db mice; [3]): 148 mg/100 ml | Plasma Glucose Levels (db/db mice; dose 0.005 % wt of chow, week 5): 138 mg/100 ml | Plasma Glucose Levels (db/db mice; dose 0.005 % wt of chow, week 7): 18 mg/100 ml | Average Daily Food Consumption (ob/ob mice; dose 0.0005 % wt of chow): 5.6 g/animal | Change in weight (ob/ob mice; [1]): 0.5 grams | Change in weight (ob/ob mice; dose 0.0005 % wt of chow, week 2): 2.2 grams | Change in weight (ob/ob mice; dose 0.0005 % wt of chow, week 3): 3.2 grams | Change in weight (ob/ob mice; dose 0.0005 % wt of chow, week 4): 5.2 grams | Average Daily Food Consumption (ob/ob mice; dose 0.002 % wt of chow): 5.6 g/animal | Change in weight (ob/ob mice; [2]): -0.3 grams | Change in weight (ob/ob mice; dose 0.002 % wt of chow, week 2): 1.1 grams | Change in weight (ob/ob mice; dose 0.002 % wt of chow, week 3): 1.6 grams | Change in weight (ob/ob mice; dose 0.002 % wt of chow, week 4): 3.2 grams | Average Daily Food Consumption (ob/ob mice; dose 0.005 % wt of chow): 5.8 g/animal | Change in weight (ob/ob mice; [3]): -1.1 grams | Change in weight (ob/ob mice; dose 0.005 % wt of chow, week 2): -0.7 grams | Change in weight (ob/ob mice; dose 0.005 % wt of chow, week 3): -0.2 grams | Change in weight (ob/ob mice; dose 0.005 % wt of chow, week 4): 1.6 grams
